From patent publication US20030017519A1, “Electrochemical enzyme assay” (priority 1993, published 2003)

Experiment: Electrochemical characteristics of β-galactosidase labeled substrates and their cleaved labels
Type: physicochemical
Settings: for Reversible?: electrochemical reversibility, per oxidation potential listed; for Elec. Active?: scanned in the potential range −0.6 V to +1.0 V vs. Ag/AgCl
From the text: When cleaved from the substrate, the label should be electrochemically active in this same potential range.

Row | Reversible? | Elec. Active? | Structure (SMILES) | electrochemical activity at the measurement potential (before and after cleavage) | Eox vs. Ag/AGCL [V]
1 | quasi, no | yes | COc1ccc(O)c2ccccc12 [4-methoxy-1-naphthol] | – | –
2 | no | yes | OCCOCCOCCOc1ccc(O)c2ccccc12 [4-(1,4,7, 10-tetraoxadecyl)-1-naphthol] | – | –
3 | no, no | yes | OCCOCCOCCOc1ccc(O[C@@H]2O[C@H](CO)[C@H](O)[C@H](O)[C@H]2O)c2ccccc12 | – | –
4 | quasi, no | yes | COc1ccc(O[C@@H]2O[C@H](CO)[C@H](O)[C@H](O)[C@H]2O)c2ccccc12 | – | –
5 | – | no | Nc1ccc(O[C@@H]2O[C@H](CO)[C@H](O)[C@H](O)[C@H]2O)cc1 [p-aminophenyl-β-D-galactyopyranoside, p-aminophenyl-β-D-galactopyranoside] | – | –

Row | Structure (SMILES) | Reversible? | Elec. Active? | electrochemical activity at the measurement potential (before and after cleavage) | Eox vs. Ag/AGCL [V]
6 | O=c1ccc2nc3ccc(O[C@@H]4O[C@H](CO)[C@H](O)[C@H](O)[C@H]4O)cc3oc-2c1 [resorufin-β-D-galactopyranoside] | Yes | yes | electrochemically active at the measurement potential before and after cleavage | −0.100
7 | O=c1ccc2nc3ccc(O)cc3oc-2c1 [resorufin] | yes | yes | – | −0.100
